# Read-outs that look alike come from different tables or passages of the source.
# Legend:
# [1] = tested on: Haemaphysalis longicornis; assay: Tickcidal effect against Haemaphysalis longicornis, dry film in glass vial (Test Example 5); format: in vivo; conditions: for pest or weed control at 1.5 ppm: other agent 1.5 ppm alone (16-keto aspergillimide 0 ppm); for pest or weed control at 3 ppm: other agent 3 ppm alone (16-keto aspergillimide 0 ppm); for pest or weed control at 30 ppm: other agent 30 ppm alone (16-keto aspergillimide 0 ppm); for Death rate (%): Table 10; for Theoretical value (%) by Colby's formula: Table 12
# Procedure: Acetone solutions (30 μl) adjusted to predetermined concentrations were placed in 4 mL-volume glass vials. The vials were placed on a shaker, and a dry film of the compound was prepared on the inner wall of the vials. The vials were dried for 24 hr or more. Larvae (10 or more heads) were released in the vials, and the vials were lidded. The vials were then left to stand in a humidistat chamber (25° C., humidity 85%, fully darkened conditions). […] The test was duplicated.
# (§1) Colby's formula: Theoretical value (%)=100−(A×B)/100
# Laodelphax striatellus [2] = assay: Root dipping application test, Laodelphax striatellus (Reference Test Example 1); format: in vivo; conditions: 0.5 μg/seedling, wheat seedlings, 3 days after release
# Text: A test solution adjusted to a predetermined concentration (10% aqueous acetone solution) was applied to the root of wheat seedlings in water culture. […] The test was duplicated.
# As is apparent from Table 15, the systemic insecticidal activity of 16-keto aspergillimide was much higher than that of a control compound, Asperparaline A.
# The 16-keto aspergillimide and Asperparaline A used in this test were obtained according to methods described in The Journal of Antibiotics, 1997, 50(10), 840-846. This is true of the following test examples.
# Laodelphax striatellus [3] = assay: Foliage application test for Laodelphax striatellus (Test Example 2); format: in vivo; conditions: other insecticide 0.313 ppm alone (16-keto aspergillimide 0 ppm); for Death rate (%): foliage application, 3 days after release
# Text: as §1
# Laodelphax striatellus [4] = assay: Laodelphax striatellus soil drenching application test (Test Example 1); conditions: for Death rate (%): soil drenching, 3 days after release
# Procedure: Test solutions adjusted to a predetermined concentration (10% aqueous acetone solution) were applied to rice seedling in a pot by soil drenching. The rice seedling was allowed to stand for 3 days. Second instar larvae were released and was then allowed to stand in a humidistat chamber (light period 16 hr−dark period 8 hr) (25° C.).
# Death rate (%)={number of dead larvae/(number of survived larvae+number of dead larvae)}×100
# wherein A: 100−(death rate when application was performed only with 16-keto aspergillimide); and
# [5] = tested on: Haemaphysalis longicornis; assay: Tickicidal effect against Haemaphysalis longicornis on body surface of mouse (Test Example 6); format: in vivo; conditions: other agent 6 μg/2 cm^2 alone (16-keto aspergillimide 0 μg/2 cm^2)
# Procedure: Skin hair on the back of mouse (ICR, male, 5 week olds) was clipped in a diameter of about 2 cm, and a 15-mL polystyrene conical tube cut to have a height of about 1.5 cm was bonded to the body surface of the mouse with an instant adhesive. Test solutions (20 μl) adjusted with ethanol were dropped on the body surface of mice within the bonded tube. After thorough drying, larvae (10 or more heads) were released within the tube, and the tube was lidded. […] The test was hexaplicated.
# as §1
# [6] = tested on: Nilaparvata lugens which is low-sensitive to imidacloprid; assay: Foliage application test for Nilaparvata lugens, imidacloprid low-sensitive strain (Test Example 4); format: in vivo; conditions: low-sensitive strain, 6 days after release
# Procedure: (§2) Test solutions adjusted to a predetermined concentration (50% aqueous acetone solution) applied to rice seedlings in a pot for foliage application. […] The test was duplicated.
# (§3) For comparison, a test was carried out in the same manner as described above, except that a Nilaparvata lugens strain which is highly sensitive to imidacloprid was used.
# (§4) Regarding the origin of the test insect pests, Nilaparvata lugens which is low-sensitive to imidacloprid was an insect which had been collected outdoors in Kumamoto Prefecture, 2007, and Nilaparvata lugens which is sensitive to imidacloprid was an insect which had been collected in Kagoshima Prefecture and was then subjected to indoor successive raising.
# [7] = tested on: Nilaparvata lugens which is sensitive to imidacloprid; assay: Foliage application test for Nilaparvata lugens, imidacloprid-sensitive strain (Test Example 4, comparison); format: in vivo; conditions: 6 days after release
# Procedure: as §2, §3, §4
# [8] = Haemaphysalis longicornis, 48 h, read-out: Death rate (%), Table 9, 2 days after release
# [9] = other insecticide 0.002 mg/seedling alone (16-keto aspergillimide 0 mg/seedling)
# [10] = other insecticide 0.005 mg/seedling alone (16-keto aspergillimide 0 mg/seedling)
# [11] = treatment concentration 1.25 ppm
compound,measurement,setting,value
"C/C(=N\C#N)N(C)Cc1ccc(Cl)nc1 [Acetamiprid, acetamiprid]",pest or weed control at 1.5 ppm,[1]; [8],24%
same,pest or weed control at 3 ppm,[1]; [8],55%
"C[C@H]1CCN2C[C@@]34C[C@]5(CC(=O)N(C)C5=O)C(C)(C)[C@@H]3C[C@]12C(=O)N4C [Asperparaline A, reference compound]",Death rate (%) for each amount of test chemical compound,Laodelphax striatellus [2],0%
"CN/C(=N\[N+](=O)[O-])NCc1cnc(Cl)s1 [Clothianidin, clothianidin]",Theoretical value (%) calculated by the Colby's formula,Laodelphax striatellus [3],4%
same,Death rate (%),Laodelphax striatellus [3],4%
same,pest or weed control at 5 ppm,"[1]; Haemaphysalis longicornis, 48 h, read-out: Death rate (%), Table 10, other agent 5 ppm alone (16-keto aspergillimide 0 ppm), 2 days after release",35%
same,pest or weed control at 10 ppm,"[1]; Haemaphysalis longicornis, 48 h, read-out: Death rate (%), Table 10, other agent 10 ppm alone (16-keto aspergillimide 0 ppm), 2 days after release",62%
"CN/C(=N/CC1CCOC1)N[N+](=O)[O-] (centres unmarked) [Dinotefuran, dinotefuran]",Theoretical value (%) calculated by the Colby's formula,Laodelphax striatellus [4],4%
same,Death rate (%),Laodelphax striatellus [4]; [9],4%
same,pest or weed control at 30 ppm,[1]; [8],12%
same,pest or weed control at 50 ppm,"[1]; Haemaphysalis longicornis, 48 h, read-out: Death rate (%), Table 9, other agent 50 ppm alone (16-keto aspergillimide 0 ppm), 2 days after release",14%
"N#Cc1nn(-c2c(Cl)cc(C(F)(F)F)cc2Cl)c(N)c1[S+]([O-])C(F)(F)F (centres unmarked) [Fipronil, fipronil]",Theoretical value (%) calculated by the Colby's formula,Laodelphax striatellus [4],5%
same,Death rate (%),Laodelphax striatellus [4]; [9],5%
same,Theoretical value (%) calculated by the Colby's formula,Laodelphax striatellus [3],21%
same,Death rate (%),Laodelphax striatellus [3],21%
"O=[N+]([O-])NC1=NCCN1Cc1ccc(Cl)nc1 [Imidacloprid, imidacloprid, reference compound]",Theoretical value (%) by Colby's formula,[5],22%
same,Death rate (%),"[5]; mouse body surface, 3 days after release",22%
same,Theoretical value (%) calculated by the Colby's formula,Laodelphax striatellus [4]; [10],5%
same,Death rate (%),Laodelphax striatellus [4]; [10],5%
same,Theoretical value (%) calculated by the Colby's formula,Laodelphax striatellus [3],5%
same,Death rate (%),Laodelphax striatellus [3],5%
same,pest or weed control at 1.5 ppm,[1]; [8],26%
same,pest or weed control at 3 ppm,[1]; [8],33%
same,Death rate (%),[6]; [11],15%
same,Death rate (%),[6]; treatment concentration 5 ppm,55%
same,Death rate (%),[6]; treatment concentration 20 ppm,85%
same,Death rate (%),[7]; [11],100%
same,Death rate (%),[7]; treatment concentration 5 ppm,100%
same,Death rate (%),[7]; treatment concentration 20 ppm,100%
"CCN(Cc1ccc(Cl)nc1)/C(=C/[N+](=O)[O-])NC [Nitenpyram, nitenpyram]",pest or weed control at 40 ppm,"[1]; Haemaphysalis longicornis, 48 h, read-out: Death rate (%), Table 9, other agent 40 ppm alone (16-keto aspergillimide 0 ppm), 2 days after release",12%
"CC(c1ccc(C(F)(F)F)nc1)S(C)(=O)=NC#N (centres unmarked) [Sulfoxaflor, sulfoxaflor]",pest or weed control at 75 ppm,"[1]; Haemaphysalis longicornis, 48 h, read-out: Death rate (%), Table 10, other agent 75 ppm alone (16-keto aspergillimide 0 ppm), 2 days after release",48%
same,pest or weed control at 150 ppm,"[1]; Haemaphysalis longicornis, 48 h, read-out: Death rate (%), Table 10, other agent 150 ppm alone (16-keto aspergillimide 0 ppm), 2 days after release",60%
"CN1COCN(Cc2cnc(Cl)s2)/C1=N\[N+](=O)[O-] [Thiamethoxam, thiamethoxam]",pest or weed control at 30 ppm,"[1]; Haemaphysalis longicornis, 48 h, read-out: Death rate (%), Table 10, 2 days after release",21%
same,pest or weed control at 60 ppm,"[1]; Haemaphysalis longicornis, 48 h, read-out: Death rate (%), Table 10, other agent 60 ppm alone (16-keto aspergillimide 0 ppm), 2 days after release",26%
ivermectin,Death rate (%),"[1]; other agent 200 ppm alone (16-keto aspergillimide 0 ppm), 2 days after release",0%
same,Death rate (%),"[1]; other agent 400 ppm alone (16-keto aspergillimide 0 ppm), 2 days after release",0%
same,Theoretical value (%) by Colby's formula,[1]; other agent 200 ppm alone (16-keto aspergillimide 0 ppm),0%
same,Theoretical value (%) by Colby's formula,[1]; other agent 400 ppm alone (16-keto aspergillimide 0 ppm),0%

# Source: patent US20110263520A1, “COMPOSITION FOR USE IN CONTROLLING HARMFUL ORGANISMS THAT CONTAINS 16-KETO ASPERGILLIMIDE” (priority 2008, published 2011)
